Series [1] deals with ICR outbred mice. The following applies: mouse, in vivo.
The subject of series [2] is ICR outbred mice. The following applies: mouse, in vivo. The source holds these as a separate data set.
In series [3] the test system is Wistar rats. The following applies: rat, in vivo.
In series [4] the test system is Wistar rats. The following applies: rat, in vivo. The source holds these as a separate data set.
The conditions of series [5]: mouse, in vivo.
Series [6] concerns ectromelia virus. Particulars: mouse, in vivo, po; cited from earlier work.
Series [7] deals with monkeypox virus strain V79-1-005. Particulars: mouse, in vivo, po; cited from earlier work.
Series [8] relates to Ind-3a variola virus strain. Particulars: mouse, in vivo, po; cited from earlier work.
Series [9] deals with monkeypox virus strain V79-1-005. Particulars: in vivo, po; cited from earlier work.
The subject of series [10] is ectromelia virus. Particulars: mouse, in vivo; cited from earlier work.
The subject of a further series is monkeypox virus. The following applies: cynomolgus monkey, in vivo; cited from earlier work.
The next series can be described thus: in vivo. Particulars: both, ICR, mouse.
For series [11] the following is noted: cynomolgus monkey, in vivo; cited from earlier work.
For series [12] the following is noted: mouse, in vivo; cited from earlier work.
A further series concerns animals. Particulars: in vivo, po; cited from earlier work.
For another series, the system named is BALB/c mice. The following applies: mouse, in vivo; cited from earlier work.
The test system of the next series is NZW rabbits. The following applies: rabbit, in vivo; cited from earlier work.
The next series has as its system cynomolgus monkeys. Particulars: cynomolgus monkey, in vivo; cited from earlier work.

The structures appear in SMILES notation.

Take `O=C(NNC(=O)C1C2C=CC(C3CC23)C1C(=O)O)c1ccc(C(F)(F)F)cc1` (centres unmarked) [NIOCH-14, 7-({[(4-trifluoromethyl)phenyl]formohydrazido}carbonyl)tricyclo[3.2.2.0^2,4]non-8-en-6-carboxylic acid]: in the series with ICR outbred mice [1], the “hazard class according to GOST 12.1.007-76” value is “low-hazard compound” and the “macroscopic pathomorphological changes in organs” value is recorded as “no macroscopic pathomorphological changes”. Also, in the series on ICR outbred mice [2], the WBC differential entry is on record as “remained unchanged”; the “effect on animals' appearance and behavior” value is “no significant effect”; the “increase of platelet count vs. control group 1” value is listed as 28%; the “reduction of WBC count vs. control group 1” value amounted to 23%. For the same molecule, in the series on Wistar rats [3], the “changes in hematological parameters” value is recorded as “no significant changes”; the “effect on animals' appearance and behavior” value is “no significant effect”. Moreover, in the series with Wistar rats [4], the animal death entry is given as “did not cause animal death” and the “effect on hematological parameters” value is on record as “no significant effect”. In series [5], the “Absolute bioavailability Fabs” value is listed as 22.8%, the “time of maximum concentration of ST-246 in serum” value stood at 15 min and the “visible adverse reactions to i/v administration” value is “no visible adverse reactions”. Moreover, the 50% effective dose with ectromelia virus [6] is listed as 3.59 µg/g. The “virus production in the lungs” value in series [7] was “significantly reduced virus production in the lungs”. Also, the “number of infected mice and virus production in the lungs” value in [8] is given as “significantly reduced”. The signs of disease entry in series [9] was “no signs of disease”.

One may read the Tmax as the time at which the peak concentration occurs. The half-life is how long it takes for the measured level to halve. Read a low half-life as fast loss. What is called Cmax is the highest concentration seen after dosing. The bioavailability is dose-corrected exposure relative to a reference, in per cent. Read a low bioavailability as poor availability. Turning to `O=C(NN1C(=O)C2C3C=CC(C4CC34)C2C1=O)c1ccc(C(F)(F)F)cc1` (centres unmarked) [ST-246, N-{3,5-dioxo-4-azatetracyclo[5.3.2.0^2,6.0^8,10]dodec-11-en-4-yl}-4-(trifluoromethyl)benzamide], in series [5], the “visible adverse reactions to i/v administration” value was “no visible adverse reactions”. For the same molecule, the 50% effective dose in the series with ectromelia virus [6] is reported as 5.08 µg/g. In addition, in the series with ectromelia virus [10], the “dose of optimal effectiveness” value is reported as 100 µg/g. Moreover, the effective dose with monkeypox virus is given as 3 µg/g. In addition, in the series “in vivo” (iv), the Tmax is 0.25 h and the half-life was 2 h. The highest level in “in vivo” (iv, Cmax) (Cmax) was 13200 ng/mL. This molecule returned a Cmax in “in vivo” (iv, maximum concentration (Cmax) of ST-246 in serum) of 13200 ng/mL. For the same molecule, in “in vivo” (po), the Tmax came out at 3 h, the bioavailability stood at 12.1% and the half-life is 3.4 h. The same molecule displayed a Cmax in “in vivo” (po, Cmax) of 15500 ng/mL. In the series “in vivo” (po, maximum concentration (Cmax) of ST-246 in serum), the Cmax came to 15500 ng/mL. Besides, the “absolute oral bioavailability (Fabs)” value in series [11] was 31-77%. For the same molecule, in series [12], the T1/2 is 2.2 h, the Tmax in serum was 4.5 h and the “plasma Cmax” value is 44000 ng/mL. In addition, the animal death entry in the series with animals is “did not cause death”. The “disorders or damage in the animals” value with BALB/c mice is recorded as “no disorders or damage”. Moreover, the pathological effects entry with NZW rabbits is “No pathological effects”. Further, in the series with cynomolgus monkeys, the pathological processes result is given as “did not cause any pathological processes”.

(Values after publication PMC9863109 (Viruses, 2023).)
